The target of the assay is T1, androgen receptor (AR) splicing variant AR-v7 (Homo sapiens, UniProt P10275).
T1 construct: The degradation activity of compounds on AR-v7 in 22RV1 cells; host or cells: 22RV1 cells
T1 sequence (P10275 1-644 isoform P10275-3): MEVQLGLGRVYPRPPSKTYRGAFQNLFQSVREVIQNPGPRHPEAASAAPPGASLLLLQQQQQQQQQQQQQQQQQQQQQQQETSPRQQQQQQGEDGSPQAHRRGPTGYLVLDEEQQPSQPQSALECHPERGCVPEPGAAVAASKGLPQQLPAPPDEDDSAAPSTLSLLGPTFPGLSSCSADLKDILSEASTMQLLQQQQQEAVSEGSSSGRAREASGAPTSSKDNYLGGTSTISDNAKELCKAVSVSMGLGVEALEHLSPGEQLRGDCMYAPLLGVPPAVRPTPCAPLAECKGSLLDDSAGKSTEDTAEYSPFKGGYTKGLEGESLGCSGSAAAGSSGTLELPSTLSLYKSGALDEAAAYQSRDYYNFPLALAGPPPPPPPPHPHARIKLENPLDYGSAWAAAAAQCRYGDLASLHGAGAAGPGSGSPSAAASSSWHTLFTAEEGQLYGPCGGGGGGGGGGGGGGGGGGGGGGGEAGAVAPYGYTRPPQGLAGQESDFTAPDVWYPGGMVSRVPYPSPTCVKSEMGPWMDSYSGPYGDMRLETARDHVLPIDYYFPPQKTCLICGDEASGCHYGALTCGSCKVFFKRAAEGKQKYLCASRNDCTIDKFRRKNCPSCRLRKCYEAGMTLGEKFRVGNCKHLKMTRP
Put plainly: Degradation activity on androgen receptor splicing variant AR-v7 in 22RV1 cells (ELISA). The settings on record: AR-v7 degradation in 22RV1 cells, 48 h, class symbols. The assay is classed as cell-based.

A word on the DC50: it is the concentration giving 50% degradation. A lower DC50 goes with a more potent degrader.

Turning to `CC(=O)c1nccc(COc2ccc(C(C)(C)c3ccc(N4CC5(C4)CN(c4ccc6c(c4)C(=O)N(C4CCC(=O)NC4=O)C6=O)C5)cc3)cc2)n1` (stereo not shown) [Example 488], the DC50 lay within 11 to 100 nM.
Then `CC(=O)c1nccc(COc2ccc(C(C)(C)c3ccc(OC4CC5(CCN(c6ccc7c(c6)C(=O)N(C6CCC(=O)NC6=O)C7=O)CC5)C4)cc3)cc2)n1` (stereo not shown) [Example 489], with 1000 to 5000 nM; and `CC(=O)c1nccc(COc2ccc(C(C)(C)c3ccc(OC4CCC5(C4)CN(c4ccc6c(c4)C(=O)N(C4CCC(=O)NC4=O)C6=O)C5)cc3)cc2)n1` (stereo not shown) [Example 490], with 101 to 1000 nM.
`CC(C)(c1ccc(OCc2ccnc(N3CC4(COC4)C3)n2)cc1)c1ccc(OCC2(CNc3ccc4c(c3)C(=O)N(C3CCC(=O)NC3=O)C4=O)CC2)cc1` (stereo not shown) [Example 495] returned a DC50 of 101 to 1000 nM.
Then `CC(C)(c1ccc(OCCC#Cc2ccc3c(c2)C(=O)N(C2CCC(=O)NC2=O)C3=O)cc1)c1ccc(OCc2ccnc(N3CC4(COC4)C3)n2)cc1` (stereo not shown) [Example 497], with 1000 to 5000 nM; and `CC(C)(c1ccc(OCc2ccnc(N3CC4(COC4)C3)n2)cc1)c1ccc(OCC2(Nc3ccc4c(c3)C(=O)N(C3CCC(=O)NC3=O)C4=O)CCC2)cc1` (stereo not shown) [Example 498, 5-((1-((4-(2-(4-((2-(2-oxa-6-azaspiro[3.3]heptan-6-yl)pyrimidin-4-yl)methoxy)phenyl)propan-2-yl)phenoxy)methyl)cyclobutyl)amino)-2-(2,6-dioxopiperidin-3-yl)isoindolin-1,3-dione], with 11 to 100 nM.
In the case of `CC(C)(c1ccc(OCc2ccnc(N3CC4(COC4)C3)n2)cc1)c1ccc(O[C@]2(C)C[C@@H](Nc3ccc4c(c3)C(=O)N(C3CCC(=O)NC3=O)C4=O)C2)cc1` (stereo partly shown) [Example 499, 5-((1r,3r)-3-(4-(2-(4-(4-((2-(2-oxa-6-azaspiro[3.3]heptane-6-yl)pyrimidin-4-yl)methoxy)phenyl)propan-2-yl)phenoxy)-3-methylcyclobutyl)amino)-2-(2,6-dioxopiperidin-3-yl)isoindolin-1,3-dione], the DC50 was in the range of 11 to 100 nM.
Under `CC(C)(c1ccc(OCc2ccnc(N3CCC4(CCNC4)CC3)n2)cc1)c1ccc(O[C@H]2C[C@@H](Nc3ccc4c(c3)C(=O)N(C3CCC(=O)NC3=O)C4=O)C2)cc1` (stereo partly shown) [Example 500, 5-((1s,3s)-3-(4-(2-(4-(4-((2-(2,8-diazaspiro[4.5]decan-8-yl)pyrimidin-4-yl)methoxy)phenyl)propan-2-yl)phenoxy)cyclobutyl)amino)-2-(2,6-dioxopyridin-3-yl)isoindolin-1,3-dione] stands 11 to 100 nM.
Take `CC(C)(c1ccc(OCc2ccnc(N3CC4(COC4)C3)n2)cc1)c1ccc(C(=O)N2CC(Nc3ccc4c(c3)C(=O)N(C3CCC(=O)NC3=O)C4=O)C2)cc1` (stereo not shown) [Example 503]: the DC50 was 11 to 100 nM.
Compound `CC(c1ccc(C(C)(C)c2ccc(OCc3ccnc(N4CC5(COC5)C4)n3)cc2)cc1)N1CC(Nc2ccc3c(c2)C(=O)N(C2CCC(=O)NC2=O)C3=O)C1` (stereo not shown) [Example 505, 5-((1-(1-(4-(2-(4-(4-) 4-((2-(2-oxa-6-azaspiro[3.3]heptane-6-yl)pyrimidin-4-yl)methoxy)phenyl)propan-2-yl)phenyl)ethyl)azetidin-3-yl)amino)-2-(2,6-dioxopiperidin-3-yl)isoindolin-1,3-dione] gave a DC50 of 1000 to 5000 nM.
Under `CC(C)(c1ccc(CNc2ccc3c(c2)C(=O)N(C2CCC(=O)NC2=O)C3=O)cc1)c1ccc(OCc2ccnc(N3CC4(COC4)C3)n2)cc1` (stereo not shown) [Example 507, 5-((4-(2-(4-((2-(2-oxa-6-azaspiro[3.3]heptan-6-yl)pyrimidin-4-yl)methoxy)phenyl)propan-2-yl)benzyl)amino)-2-(2,6-dioxopiperidin-3-yl)isoindolin-1,3-dione] stands 11 to 100 nM; under `CN(C(=O)c1ccc(C(C)(C)c2ccc(OCc3ccnc(N4CC5(COC5)C4)n3)cc2)cc1)C1CN(c2ccc3c(c2)C(=O)N(C2CCC(=O)NC2=O)C3=O)C1` (stereo not shown) [Example 508, 4-(2-(4-((2-(2-oxa-6-azaspiro[3.3]heptan-6-yl)pyrimidin-4-yl)methoxy)phenyl)propan-2-yl)-N-(1-(2-(2,6-dioxopiperidin-3-yl)-1,3-dioxoisoindolin-5-yl)azetidin-3-yl)-N-methylbenzamide], 101 to 1000 nM.
`CC(C)(c1ccc(CNC2CN(c3ccc4c(c3)C(=O)N(C3CCC(=O)NC3=O)C4=O)C2)cc1)c1ccc(OCc2ccnc(N3CC4(COC4)C3)n2)cc1` (stereo not shown) [Example 509] returned a DC50 of 11 to 100 nM.
Then `Cc1nc(-c2ncc(Oc3ccc(C(C)(C)c4ccc(O[C@H]5C[C@H](Nc6ccc7c(c6)C(=O)N(C6CCC(=O)NC6=O)C7=O)C5)cc4)cc3)cc2F)no1` (stereo partly shown) [Example 511], with 11 to 100 nM.
Under `Cc1nnc(-c2coc(Oc3ccc(C(C)(C)c4ccc(O[C@H]5C[C@H](Nc6ccc7c(c6)C(=O)N(C6CCC(=O)NC6=O)C7=O)C5)cc4)cc3)n2)o1` (stereo partly shown) [Example 514] stands 11 to 100 nM; under `CC(C)(c1ccc(Oc2cnc(-n3nccn3)c(Cl)c2)cc1)c1ccc(O[C@H]2C[C@H](Nc3ccc4c(c3)C(=O)N(C3CCC(=O)NC3=O)C4=O)C2)cc1` (stereo partly shown) [Example 515], 11 to 100 nM.
`CC(c1ccc(Oc2cnc(-n3ccnn3)nc2)cc1)c1ccc(O[C@H]2C[C@H](Nc3ccc4c(c3)C(=O)N(C3CCC(=O)NC3=O)C4=O)C2)cc1` (stereo partly shown) [Example 519] had a DC50 of 11 to 100 nM.
Under `O=C1CCC(N2C(=O)c3ccc(N[C@H]4C[C@H](Oc5ccc(Cc6ccc(Oc7cnc(-n8ccnn8)nc7)cc6)cc5)C4)cc3C2=O)C(=O)N1` (stereo partly shown) [Example 520] stands 11 to 100 nM.
Regarding `CC(O)c1ccc(Oc2ccc(C(C)(C)c3ccc(O[C@H]4C[C@@H](Nc5ccc6c(c5)C(=O)N(C5CCC(=O)NC5=O)C6=O)C4)cc3)cc2)cn1` (stereo partly shown) [Example 524], the DC50 was 11 to 100 nM.
Then `Cc1nc(-c2ncc(Oc3ccc(C(C)(C)c4ccc(OC5CC(Nc6cc7c(cn6)C(=O)N(C6CCC(=O)NC6=O)C7=O)C5)cc4)cc3)cn2)no1` (stereo not shown) [Example 530, 2-(2,6-dioxopiperidin-3-yl)-6-((1r,3r)-3-(4-(2-(4-((2-(5-methyl-1,2,4-oxadiazol-3-yl)pyrimidin-5-yl)oxy)phenyl)propan-2-yl)phenoxy)cyclobutyl)amino)-1H-pyrrolo[3,4-c]pyridin-1,3(2H)-dione], with 101 to 1000 nM; and `CCNC(=O)c1nccc(COc2ccc(C(C)(C)c3ccc(OC4CC(Nc5ccc6c(c5)C(=O)N(C5CCC(=O)NC5=O)C6=O)C4)cc3)cc2)n1` (stereo not shown) [Example 531], with 11 to 100 nM; and `CN1CCN(c2ncc(COc3ccc(C(C)(C)c4ccc(OC5CC(Nc6ccc7c(c6)C(=O)N(C6CCC(=O)NC6=O)C7=O)C5)cc4)cc3)cn2)CC1` (stereo not shown) [Example 534], with 11 to 100 nM.
As to `Cc1cncc(Oc2ccc(C(C)(C)c3ccc(O[C@H]4C[C@@H](Nc5ccc6c(c5)C(=O)N(C5CCC(=O)NC5=O)C6=O)C4)cc3)cc2)n1` (stereo partly shown) [Example 537], the DC50 was 11 to 100 nM.
For `CC(C)(c1ccc(Oc2ccc(-n3nccn3)nc2)cc1)c1ccc(O[C@H]2C[C@@H](Nc3ccc4c(c3)C(=O)N(C3CCC(=O)NC3=O)C4=O)C2)cc1` (stereo partly shown) [Example 540], the DC50 was 11 to 100 nM.
Regarding `CC(C)(c1ccc(Oc2ccc(-n3ccnn3)nc2)cc1)c1ccc(O[C@H]2C[C@@H](Nc3ccc4c(c3)C(=O)N(C3CCC(=O)NC3=O)C4=O)C2)cc1` (stereo partly shown) [Example 541, 5-((1s,3s)-3-(4-(2-(4-((6-(1H-1,2,3-triazol-1-yl)pyridin-3-yl)oxy)phenyl)propan-2-ylphenoxy)cyclobutyl)amino)-2-(2,6-dioxopiperidin-3-yl)isoindolin-1,3-dione], the DC50 lay in the range of 11 to 100 nM.

The values are drawn from patent publication US20250051347A1, “BIFUNCTIONAL CHIMERIC HETEROCYCLIC COMPOUND AND USE THEREOF AS ANDROGEN RECEPTOR DEGRADER” (Hinova Pharmaceuticals, Inc., priority 2021, published 2025).
